Reference: US20080200393A1, “Method and Composition For Treating Angiogenesis and For Preventing Cancer Progression and Metastasis Comprising a Prostate Secretory Protein (Psp94) Family Member” (Ambrillia Biopharma Inc., priority 2004, published 2008)
Where no end group is shown, it is not given here.

Columns and labels:
ERK [1] = assay: Induced ERK phosphorylation in HUVEC (Western blot); assay type: cell-based, Human
Protocol: (§1) Cell culture. Human umbilical vein endothelial cells (HUVEC) and pulmonary aortic smooth muscle cells (PASMC) were obtained from Clonetics and maintained in endothelial cell basal medium-2 (EBM-2; Clonetics) and smooth muscle medium-2 (SmGM-2; Clonetics), respectively. Cells were cultured at 37° C. under a humidified atmosphere containing 5% CO2. For experimental purposes, cells were plated in 8 100-mm plastic dishes at 5,000 cells/cm^2 and were grown to confluence before overnight serum starvation. Cells were treated with vehicle or with a PCK3145 derivative diluted in 0.1 N NaOH, and stimulated with 50-100 ng/ml VEGF or PDGF, with 10 ng/ml of bFGF (basic fibroblast growth factor) or with 1 μM S1P (sphingosine-1-phosphate).
Immunoprecipitation and immunoblotting procedures. After treatment, cells were washed once with phosphate-buffered saline (PBS) containing 1 mM sodium orthovanadate and were incubated in the same medium for 1 h at 4° C. The cells were solubilized on ice in lysis buffer (150 mM NaCl, 10 mM Tris-HCl, pH 7.4, 1 mM EDTA, 1 mM EGTA, 0.5% Nonidet P-40, 1% Triton X-100) containing 1 mM sodium orthovanadate. The cells were then scraped from the culture dishes and the resulting lysates were clarified by centrifugation at 10,000 g for 10 min; Protein concentrations were determined using the micro bicinchoninic acid method (Pierce). For immunoprecipitation studies, lysates were clarified by a 1 h incubation at 4° C. with a mixture of Protein A/Protein G Sepharose beads. After removal of the Sepharose beads by low-speed centrifugation, identical amounts of protein (200 μg) from each sample were transferred to fresh tubes and incubated in lysis buffer overnight at 4° C. in the presence of 2 μg/ml of specific antibodies. Immunocomplexes were collected by incubating the mixture with 25 μl (50% suspension) of Protein A- (rabbit primary antibody) or Protein G- (mouse primary antibody) Sepharose beads, for 2 h. Nonspecifically-bound material was removed by washing the beads three times in 1 ml of lysis buffer containing 1 mM sodium orthovanadate, and bound material was solubilized in 25 μl of two-fold concentrated Laemmli sample buffer (125 mM Tris-HCl (pH 6.8), 20% glycerol, 4% SDS, 10% β-mercaptoethanol, and 0.00125% bromphenol blue), boiled 5 min, and resolved by SDS-PAGE. The proteins were transferred onto polyvinylidene difluoride (PVDF) membranes, blocked 1 h at room temperature with Tris-buffered saline/Tween 20 (147 mM NaCl, 20 mM Tris/HCl, pH 7.5, and 0.1% Tween 20) containing 2% bovine serum albumin and incubated overnight at 4° C. with primary antibody. […] The immunoreactive bands were quantified by scanning densitometry (Molecular Dynamics).
VEGF is a strong activator of ERKs (Extracellular-signal-Regulated protein Kinases) 1 and 2 via VEGF receptor 2. In order to test the ability of the PCK3145 derivative in potentially antagonizing VEGF-mediated ERK phosphorylation, serum-starved quiescent endothelial cells (HUVEC) were incubated with vehicle (phosphate-buffered saline (PBS) pH 7.4) or PCK3145 derivative (300 μg/ml) for 24 h and then stimulated with VEGF, bFGF (basic Fibroblast Growth Factor) or S1P (sphingosine-1-phosphate). Cells were washed with PBS containing NaF/Na3VO4 and incubated in the same medium buffer for 1 h at 4° C. The cells were scraped from the culture dishes and the resulting lysates clarified by centrifugation. Western blotting and immunodetection using anti-phosphoERK and anti-ERK antibodies was then performed.

ERK [2] = assay: PDGF-induced ERK phosphorylation in PASMC; assay type: cell-based
Protocol: as §1
Immunoprecipitation and immunoblotting procedures. After treatment, cells were washed once with phosphate-buffered saline (PBS) containing 1 mM sodium orthovanadate and were incubated in the same medium for 1 h at 4° C. […] The cells were then scraped from the culture dishes and the resulting lysates were clarified by centrifugation at 10,000 g for 10 min; Protein concentrations were determined using the micro bicinchoninic acid method (Pierce). […] The immunoreactive bands were quantified by scanning densitometry (Molecular Dynamics). […]

U-87 cells [3] = assay: U-87 cell migration on hyaluronic acid; assay type: cell-based; conditions: 300 ug/ml, 48 hrs pretreatment; HA-coated filters, 2 hours
Protocol: The biological activity of a desired polypeptide may further be determined using migration assays. U-87 cells are treated with a polypeptide of the present invention (e.g., any PCK3145 derivative, fragment, analog, such as for example, any one of or combinations of SEQ ID NOs.: 9 to 98). The treated cells are trypsinised, counted, and seeded on HA-coated filters inserted in modified Boyden Chambers as described herein or in the art. Cell migration is allowed to proceed for 2 hours at 37° C. Filters are then stained for cells that have migrated through the filter. A decreased basal U-87 cell migration observed in cells treated with a polypeptide of the present invention is indicative of a biologically active polypeptide (i.e., a biologically active PCK3145 derivative, fragment, analog).
Migration/invasion of cancer cells is a key event in tumor metastasis. In vitro, this process can be reconstituted by plating cells onto ECM-coated filters inserted in modified Boyden chemotactic chambers. The effect of the PCK3145 derivative can be monitored by the number of cells that had migrated comparatively to untreated control cells. […] U-87 cells were treated with the PCK3145 derivative (300 ug/ml, 48 hrs), trypsinised, counted, and seeded on HA-coated filters inserted in modified Boyden Chambers. […]

U-87 cells [4] = assay: U-87 cell adhesion to hyaluronic acid; assay type: cell-based; conditions: U-87, 300 ug/ml, 48 hrs; adhesion 3 hours; three independent experiments
Protocol: ECM recognition is a crucial event in the cell adhesion processes involved in tumor progression. This process is mediated and regulated through specialized cell surface receptors or integrins. […] U-87 cells were treated with the PCK3145 derivative (300 ug/ml, 48 hrs), trypsinised, counted, and seeded on wells coated with 10 ug/ml BSA (bovine serum albumin) or HA. Cells were allowed to adhere for 3 hours. Three independent experiments were performed. […] One such potential intracellular protein is the GTPase RhoA, which is likely to mediate mechanisms regulating cytoskeletal morphogenesis.

Sequence: EWQTDNCETCTCYET (cysteine pairing not given here) [PCK3145 derivative, PCK3145 derivative with acetylaminomethyl groups on the three cysteines]
- extent of ERK phosphorylation by VEGF, dose-response (ERK [1]): gradually inhibit
- ERK phosphorylation induced by S1P (ERK [1]; 300 μg/ml, 24 h): not that induced by bFGF or S1P
- ERK phosphorylation induced by VEGF (ERK [1]; 300 μg/ml, 24 h): specific inhibitory effect
- total amount of ERK (ERK [1]; 300 μg/ml, 24 h): unaffected
- VEGF-induced ERK phosphorylation, time-course (ERK [1]; 3 and 24 hrs): necessity of a long term action
- PDGF-induced ERK phosphorylation (ERK [2]): inhibition
- decrease of basal U-87 cell migration (U-87 cells [3]): approximately 3 fold
- diminution of cell adhesion on HA (U-87 cells [4]): 45-76%
